Key:
human P2Y14 receptor = molecular target: T1, human P2Y14 receptor (Homo sapiens, UniProt Q15391); conditions: read-out: Potency at the P2Y14 receptor in the same assay; C6 cells expressing the human P2Y14 receptor; cited from earlier work
T1 sequence (Q15391 1-338): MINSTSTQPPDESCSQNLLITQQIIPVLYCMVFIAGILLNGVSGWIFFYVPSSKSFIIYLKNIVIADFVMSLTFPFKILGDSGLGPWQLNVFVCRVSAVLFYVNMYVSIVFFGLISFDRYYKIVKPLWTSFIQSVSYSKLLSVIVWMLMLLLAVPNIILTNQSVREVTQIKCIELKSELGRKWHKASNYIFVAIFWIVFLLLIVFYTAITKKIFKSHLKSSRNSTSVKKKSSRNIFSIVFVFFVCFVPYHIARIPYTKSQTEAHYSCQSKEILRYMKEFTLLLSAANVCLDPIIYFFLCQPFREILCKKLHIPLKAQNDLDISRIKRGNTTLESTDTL

human A2AAR = human A2AAR (Homo sapiens, UniProt P29274); conditions: read-out: Affinity (Ki) A2 (A2A), [3H]CGS21680, HEK293, ref Tosh et al. ([15], [21]) and Melman et al. ([14]); cited from earlier work
Sequence of human A2AAR (P29274 whole entry): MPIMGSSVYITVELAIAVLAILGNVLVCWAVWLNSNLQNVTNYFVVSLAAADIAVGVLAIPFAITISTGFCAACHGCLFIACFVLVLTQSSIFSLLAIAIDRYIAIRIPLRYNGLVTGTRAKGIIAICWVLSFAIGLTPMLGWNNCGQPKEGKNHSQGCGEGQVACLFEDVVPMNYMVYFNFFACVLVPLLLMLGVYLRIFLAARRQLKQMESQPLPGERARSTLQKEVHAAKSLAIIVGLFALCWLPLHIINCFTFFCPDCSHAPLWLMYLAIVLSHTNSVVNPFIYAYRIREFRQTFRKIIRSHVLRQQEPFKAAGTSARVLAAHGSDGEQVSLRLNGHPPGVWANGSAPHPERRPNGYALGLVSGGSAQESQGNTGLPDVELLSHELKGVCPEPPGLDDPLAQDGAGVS

human A1AR = molecular target: T2, human A1AR (Homo sapiens, UniProt P30542); conditions: at 10 μM, ref Tosh et al. ([15], [21]) and Melman et al. ([14]); cited from earlier work
T2 sequence (P30542 1-326): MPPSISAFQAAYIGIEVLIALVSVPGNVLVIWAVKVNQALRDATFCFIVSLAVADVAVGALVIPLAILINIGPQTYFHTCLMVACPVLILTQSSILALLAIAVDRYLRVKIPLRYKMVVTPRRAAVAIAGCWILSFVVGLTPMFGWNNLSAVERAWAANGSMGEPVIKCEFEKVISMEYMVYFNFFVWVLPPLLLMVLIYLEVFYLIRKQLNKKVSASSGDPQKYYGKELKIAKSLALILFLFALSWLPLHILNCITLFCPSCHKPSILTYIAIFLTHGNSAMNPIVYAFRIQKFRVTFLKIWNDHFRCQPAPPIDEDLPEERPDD

human A3AR [1] = molecular target: T3, human A3AR (Homo sapiens, UniProt P0DMS8); conditions: cited from earlier work
T3 sequence (P0DMS8 1-318): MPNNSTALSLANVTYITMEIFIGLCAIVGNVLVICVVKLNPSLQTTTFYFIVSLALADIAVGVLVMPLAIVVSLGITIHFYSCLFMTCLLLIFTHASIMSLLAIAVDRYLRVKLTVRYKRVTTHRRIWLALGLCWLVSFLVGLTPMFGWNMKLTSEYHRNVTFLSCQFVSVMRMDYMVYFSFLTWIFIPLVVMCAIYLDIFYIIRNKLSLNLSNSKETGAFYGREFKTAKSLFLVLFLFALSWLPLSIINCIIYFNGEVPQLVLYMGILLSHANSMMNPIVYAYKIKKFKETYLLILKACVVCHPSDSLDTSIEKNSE

human A3AR [2] = molecular target: T3, human A3AR; test: Radioligand binding at human A3AR; conditions: human ARs

| Compound | EC50 (human P2Y14 receptor) | Ki (human A2AAR) | % inhibition of radioligand binding A1 (human A1AR) | Selectivity for the A3AR (human A3AR [1]) | Selectivity for the A3AR in comparison to the A1AR (human A3AR [2]) |
| --- | --- | --- | --- | --- | --- |
| O=C(O)[C@H]1O[C@H](OP(=O)(O)OP(=O)(O)OC[C@H]2O[C@@H](n3ccc(=O)[nH]c3=O)[C@H](O)[C@@H]2O)[C@H](O)[C@@H](O)[C@@H]1O [UDPGA, uridine-5′-diphosphoglucuronic acid] | 200 to 300 nM |  |  |  |  |
| CNC(=O)[C@@]12C[C@@H]1[C@@H](n1cnc3c(NCc4cccc(Cl)c4)nc(Cl)nc31)[C@H](O)[C@@H]2O [Compound 2] |  | 2300 ± 100 nM |  |  |  |
| CNC(=O)[C@@]12C[C@@H]1[C@@H](n1cnc3c(NCc4cccc(Cl)c4)nc(C#CCCCCc4cn(CCNC(C)=O)nn4)nc31)[C@H](O)[C@@H]2O [Compound 4a] |  | 2440 ± 320 nM | (12±4%) at 10 μM | at least 100 fold | > 500 fold |
| C#CCCCCC#Cc1nc(NCc2cccc(Cl)c2)c2ncn([C@H]3[C@H](O)[C@H](O)[C@]4(C(=O)NC)C[C@H]34)c2n1 [Compound 3a] |  |  | (31±2%) at 10 μM |  |  |

Source: paper PMC2845915 (Bioconjugate chemistry, 2010)
